# Data reported in a melting point compilation (Tetko et al.; mined from patent text by program, amines drawn as free bases though some values may be those of a salt).
row,Structure (SMILES),melting point
1,C#CCNC(=O)c1ncn2c1CN(C)C(=O)c1ccccc1-2,213 to 215 °C
2,COC(=O)/C=C/c1ccc2c(c1)nc(N)c1ncn(CC(C)(C)O)c12,> 250 °C
3,O=C(OCc1ccccc1)C1CC(=C2NC(=O)N(c3ccccc3)C2=O)c2ccc(Cl)cc2N1 (centres undefined),> 220 °C
4,Cn1c2ccccc2c2c(C(=O)C(F)(F)F)csc21,138 to 140 °C
5,N#CNC=Nc1ccc(-c2cc[nH]n2)cc1,223 to 224 °C
6,CC(C)(C)OC(=O)COc1ccc2sc(-c3ccccn3)nc(=O)c2c1,183 to 184 °C
7,CCCCC(=O)c1ccc(OCC(=O)O)c(Cl)c1Cl,110 to 113 °C
8,CC1N=C2N(Cc3ccc(Cl)cc3)c3[nH]cnc3C(=O)N2C1C (centres undefined),252 to 254 °C
9,CC(C)(C)c1ccc(CCC(O)CC2CCCCC2)cc1NC(=O)NCC1c2ccccc2Oc2ccccc21 (centres undefined),156 to 157 °C
10,O[C@@H]1CCC[C@H]1Nc1ccc(Cl)c(Cl)c1 (relative stereo),167 to 168 °C
11,CN1C(=O)CN=C(c2ccccc2)c2cc(NO)ccc21,211 to 213 °C
12,CC1(C)CCC(C)(C)c2cc(-c3cc(-c4ccc(C(=O)O)cc4)ccc3OCCCO)ccc21,317 °C
13,CCCCN1C(=O)CC(Sc2cc(C(C)(C)C)c(O)c(C(C)(C)C)c2)C1=O (centres undefined),80 to 85 °C
14,c1ccc(CSc2ccccc2C2=NOCCO2)cc1,73 to 77 °C
15,O=C(Nc1cccc2cc(CO)cnc12)c1c(Cl)cccc1Cl,224 to 226 °C
16,Cc1ncc2c(c1O)COC2S(C)(=O)=O (centres undefined),205 to 206 °C
17,CN(c1cccc2cc(C3=NCC(CC(=O)O)S3)[nH]c12)S(=O)(=O)c1cccs1 (centres undefined),232 to 234 °C
18,Cn1nc2ccc(NCCCN3CCC(OC(c4ccccc4)c4ccccc4)CC3)nn2c1=O,171 to 172 °C
19,O=C(CCCCCCC(=O)N1CCN(c2cccc(C(F)(F)F)c2)CC1)NO,126 to 128 °C
20,O=c1c(-c2ccccc2)c(-c2ccccc2)oc2cc(OCC3CO3)ccc12 (centres undefined),143 to 145 °C
21,COc1cc2c(cc1Nc1ncc3ccc(-c4ccccc4OC)n3n1)CN(C)C2,136 to 141 °C
22,CC(=O)Oc1ccc2cc(-c3ccc(C(=O)O)cc3)ccc2c1,254 to 256 °C
23,CC(C)CN(CC(C)C)c1ccc(C(=O)c2ccccc2)cc1N,59 to 60 °C
24,CCCCc1ccc(N)c(C(=O)C(=O)OC(=O)C(=O)c2cc(CCCC)ccc2N)c1,218 to 220 °C
25,CCN1C(=O)CC(C)(C)c2ccc(C#N)cc21,120 to 121 °C
26,COc1ccc(CSc2ncn(Cc3cc4c(cc3Cl)OCO4)c2C(=O)O)cc1,195 °C

# Other lines, results leading:
row,melting point,Structure (SMILES)
1,307 to 309 °C,COc1cc(C2C3=C(COC3=O)Nc3ccc4cn[nH]c4c32)ccc1F (centres undefined)
2,252 to 256 °C,N#Cc1ccc(N2CCN(Cc3cnc4c(c3)NC(=O)[C@@H]3CCCN43)CC2)nc1
3,265 °C,CN(C)c1ccc2nc(N)c(C#N)c(N=Cc3ccccc3)c2c1
4,328 to 331 °C,O=c1[nH]c2cc(Cl)ccc2c(=O)c2c(-c3ccccc3)n[nH]c12
5,193 to 194 °C,O=C(O)c1snc(-c2cc(C(F)(F)F)cc(C(F)(F)F)c2)c1C(=O)O
6,199 to 200 °C,NC(=S)NC[C@H]1CN(c2ccc(N3CCOCC3)c(F)c2)C(=O)O1
7,181 to 182 °C,CC(C)(C)C(NC(=O)CCCc1cccnc1)NC(=NC#N)Nc1cccc2ncccc12 (centres undefined)
8,248 to 249 °C,Cc1ccccc1C(=O)Nc1ccc(C(=O)N2CCCC(N(C)C(=O)c3ccccc3)c3ccccc32)cc1 (centres undefined)
9,165 to 168 °C,Oc1c(C(Nc2ccc(F)cn2)c2ccccn2)ccc2cccnc12 (centres undefined)
10,162 °C,N#Cc1ccc(Nn2ccnc2)cc1
11,101 to 102 °C,CC(=O)N1CCC(CCCC(=O)c2ccc3c(c2)CCN(C(=O)C(F)(F)F)CC3)CC1
12,180 °C,CC(C)(C)OC(=O)CN1CCC(=O)N(CC(=O)OC(C)(C)C)CCC1=O
13,252 to 253 °C,CS(=O)(=O)N1CCN(c2ccc3c(c2)N2CCN=C2C(c2ccccc2)=[N+]3[O-])CC1
